According to ChEMBL document CHEMBL1201862, “PubChem BioAssay data set” (2004):
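Test compounds were applied to cells in 96-well plates for 48 hours at 5 doses. Here, GI50 denotes the concentration required for 50% inhibition of growth.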 The source made the active and inactive calls. No stated cut-off is given here; in the data, active = GI50 up to about 1.1 µM and inactive = higher.

Key:
Test in all cases: NCI-60 cell line screen, 48 h
[1] = system: COLO 205
[2] = system: DU-145
[3] = system: HCC 2998
[4] = system: HCT-116
[5] = system: HCT-15
[6] = system: HL-60
[7] = system: HOP-62
[8] = system: HOP-92
[9] = system: IGROV-1
[10] = system: M14
[11] = system: MDA-MB-435
[12] = system: NCI-H226
[13] = system: NCI-H460
[14] = system: OVCAR-3
[15] = system: OVCAR-5
[16] = system: PC-3
[17] = system: SF-268
[18] = system: SF-539
[19] = system: SK-MEL-5
[20] = system: SNB-75

Row | Compound | GI50 [1] | GI50 [2] | GI50 [3] | GI50 [4] | GI50 [5] | GI50 [6] | GI50 [7] | GI50 [8] | GI50 [9] | GI50 [10] | GI50 [11] | GI50 [12] | GI50 [13] | GI50 [14] | GI50 [15] | GI50 [16] | GI50 [17] | GI50 [18] | GI50 [19] | GI50 [20]
1 | Nc1nc(Cl)cc(NCC2(CO)CCC(Cc3ccccc3)C2)n1 (stereo not given) | 12.8 µM (inactive) | 27.8 µM (inactive) | 25.8 µM (inactive) | 15.5 µM (inactive) | 27.4 µM | 2.69 µM (inactive) | 32.7 µM (inactive) | 20.6 µM (inactive) | 26.5 µM (inactive) | 18.7 µM (inactive) | 7.73 µM (inactive) | 22.3 µM (inactive) | 18.6 µM (inactive) | 43.1 µM (inactive) | 33.3 µM (inactive) | 26.7 µM (inactive) | 30.1 µM (inactive) | 29 µM (inactive) | 0.671 µM (active) | 33.6 µM (inactive)
2 | COc1ccc2nc3c4c(nccc4c2c1)-c1ncccc1C3=O | 0.604 µM (active) | 0.00927 µM (active) | 0.209 µM (active) | 0.0124 µM (active) | 0.005 µM | 0.0217 µM (active) | 0.0193 µM (active) | 0.092 µM (active) | 0.0294 µM (active) | 0.0118 µM (active) | 0.0427 µM (active) | 0.0622 µM (active) | 0.0261 µM (active) | 0.005 µM (active) | 0.971 µM (active) | 0.0317 µM (active) | 0.0826 µM (active) | 0.0769 µM (active) | 0.0282 µM (active) | 0.0787 µM (active)
3 | c1cc2cc3c4c5c(cc6ccc7cc8cc9c%10c8c8c7c6c5c8c5c%10c(c1C9N1CCOCCOCCOCCOCCOCC1)c2c45)C3 (stereo not given) | > 100 µM (inactive) | > 100 µM (inactive) | > 100 µM (inactive) | > 100 µM (inactive) | > 100 µM | > 100 µM (inactive) | > 100 µM (inactive) | > 100 µM (inactive) | > 100 µM (inactive) | > 100 µM (inactive) | > 100 µM (inactive) | > 100 µM (inactive) | > 100 µM (inactive) | > 100 µM (inactive) | > 100 µM (inactive) | > 100 µM (inactive) | > 100 µM (inactive) | > 100 µM (inactive) | 78.9 µM (inactive) | > 100 µM (inactive)
4 | O=C1NN=C2C=C(c3ccc(Cl)cc3)CC(c3cccc(Br)c3)C12 (stereo not given) | > 100 µM (inactive) | 41.8 µM (inactive) | 38.7 µM (inactive) | 64.9 µM (inactive) | 19.3 µM | 42 µM (inactive) | > 100 µM (inactive) | 2.74 µM (inactive) | 51.3 µM (inactive) | > 100 µM (inactive) | 77.1 µM (inactive) | 73.6 µM (inactive) | 40 µM (inactive) | 42.1 µM (inactive) | > 100 µM (inactive) | 53.7 µM (inactive) | 68.5 µM (inactive) | > 100 µM (inactive) | > 100 µM (inactive) | 80.9 µM (inactive)
5 | CC[C@@H]1CC[C@@H]2[C@H](CC[C@]3(C)[C@@H](O)CC[C@@H]23)[C@H]1CO | 79.8 µM (inactive) | > 100 µM (inactive) | > 100 µM (inactive) | 95.7 µM (inactive) | > 100 µM | 23.3 µM (inactive) | > 100 µM (inactive) | > 100 µM (inactive) | > 100 µM (inactive) | > 100 µM (inactive) | 66.1 µM (inactive) | > 100 µM (inactive) | > 100 µM (inactive) | > 100 µM (inactive) | > 100 µM (inactive) | 76.4 µM (inactive) | > 100 µM (inactive) | > 100 µM (inactive) | 31.3 µM (inactive) | 75.9 µM (inactive)
6 | CC(C)CCCCCCCCCCCCC(=O)NCC(=O)NC1C(C)OC(Nc2[nH]cnc3ncnc2-3)C(O)C1O (stereo not given) | 0.000622 µM (active) | 0.0022 µM (active) | 0.000331 µM (active) | 0.000244 µM (active) | < 0.0247 µM | 0.000746 µM (active) | 0.000361 µM (active) | 0.00028 µM (active) | 0.000782 µM (active) | 0.000487 µM (active) | 0.00571 µM (active) | 0.0024 µM (active) | 0.000158 µM (active) | 0.000173 µM (active) | 0.00123 µM (active) | 0.00433 µM (active) | 0.000635 µM (active) | 0.000931 µM (active) | 0.00289 µM (active) | 0.000535 µM (active)
7 | Cn1c(=S)c2nc(SCc3cccnc3)[nH]c2n(C)c1=O | > 100 µM (inactive) | > 100 µM (inactive) | > 100 µM (inactive) | > 100 µM (inactive) | > 100 µM | > 100 µM (inactive) | > 100 µM (inactive) | > 100 µM (inactive) | > 100 µM (inactive) | > 100 µM (inactive) | > 100 µM (inactive) | > 100 µM (inactive) | > 100 µM (inactive) | > 100 µM (inactive) | > 100 µM (inactive) | > 100 µM (inactive) | > 100 µM (inactive) | > 100 µM (inactive) | > 100 µM (inactive) | 96.8 µM (inactive)
